Columns and labels:
[1] = system: HepG2 cells; settings: HepG2 value reported with Pf FGAA screen; ref Miguel-Blanco et al 2017; cited from earlier work
[2] = system: P. falciparum female gametocytes; assay: P. falciparum female gametogenesis assay (Pf FGAA); settings: 1: YES; 0: NO
[3] = system: P. falciparum female gametocytes; parameters: method as in Miguel-Blanco et al 2017; settings: TCAMS library screen; ref Miguel-Blanco et al 2017; read-out: Pf FGAA IC50; cited from earlier work

| Structure (SMILES) | HepG2 cytoxicity (Pf FGAA screen) [1] [µM] | Is compound selective in assay? Pf FGAA active? [2] | IC50 [3] [µM] |
| --- | --- | --- | --- |
| O=C(O)C(F)(F)F.O=c1[nH]ccc2nc(N[C@@H]3CCNC3)nc(Nc3cc(Cl)cc(Cl)c3)c12 [TCMDC-135052] | 4.79 | 0 (0: NO) | 0.74 |
| NCCCNc1nc(Nc2ccc(C(F)(F)F)cc2F)c2c(=O)[nH]ccc2n1.O=C(O)C(F)(F)F [TCMDC-135056] | 9.30 | 0 (0: NO) | 1.6 |
| COc1ccccc1CNc1ccnc(N2CC(Oc3ccc(F)cc3)C2)n1 [TCMDC-135118] | 73.68 | 1 (1: YES) | 4.07 |
| CC(C)(C)OC(=O)NCc1ccc(Nc2nnc(-c3cccc(C(=O)NCc4cc(C(F)(F)F)cc(C(F)(F)F)c4)c3)o2)cc1 [TCMDC-135229] | 21.43 | 0 (0: NO) | 3.14 |
| CN1CCN(Cc2ccc(-c3cc4c(Nc5ccc(OCc6cccc(F)c6)c(Cl)c5)ncnc4s3)[nH]2)CC1 [TCMDC-135458] | 10.98 | 0 (0: NO) | 2.41 |
| CC(C)N1CCN(C(CN2CCN(CCCOc3ccc(-c4ccccc4)cc3)CC2)c2ccc(F)cc2)CC1.Cl (stereo not drawn) [TCMDC-135497] | 2.29 | 0 (0: NO) | 1.42 |
| CC(C)N1CCN(C(CN2CCN(CCCOc3ccccc3-c3ccccc3)CC2)c2ccc(F)cc2)CC1.Cl (stereo not drawn) [TCMDC-135499] | 4.32 | 0 (0: NO) | 1.41 |
| COc1ccc2ccccc2c1CCCCN1CCN(CC(c2ccc(F)cc2)N2CCC2)CC1.O=C(O)C(F)(F)F (stereo not drawn) [TCMDC-135867] | 4.37 | 0 (0: NO) | 5.86 |
| COc1cc(/C=C(\C2=NC(=O)CS2)c2nc3cccnc3n2C)ccc1O [TCMDC-135917] | 21.14 | 1 (1: YES) | 0.72 |
| CCn1c(-c2nonc2N)nc2c(-c3cccc(NC(=O)Nc4ccc(Cl)cc4)c3)ncc(OCCCN)c21.O=C(O)C(F)(F)F [TCMDC-136152] | 10.96 | 0 (0: NO) | 1.7 |
| CCn1c(-c2nonc2N)nc2c(-c3cccc(NC(=O)Nc4ccc(C(F)(F)F)cc4)c3)ncc(OCCCN)c21.O=C(O)C(F)(F)F [TCMDC-136179] | 5.62 | 0 (0: NO) | 0.91 |
| CCn1c(-c2nonc2N)nc2c(-c3cccc(NC(=O)Nc4ccc5c(c4)CCC5)c3)ncc(OCCCN)c21.O=C(O)C(F)(F)F [TCMDC-136191] | 7.42 | 0 (0: NO) | 1.03 |
| CCn1c(-c2nonc2N)nc2c(-c3cccc(NC(=O)NC45CC6CC(CC(C6)C4)C5)c3)ncc(OCCCN)c21.O=C(O)C(F)(F)F [TCMDC-136246] | 6.10 | 0 (0: NO) | 1.36 |
| CN(C)CCCNCc1cn(S(=O)(=O)c2ccccc2Cl)c2ccccc12.Cl [TCMDC-136302] | 11.78 | 0 (0: NO) | 1.84 |
| Cc1noc(C)c1-c1ccc2c(Nc3nccc4ccccc34)c(C(N)=O)cnc2c1 [TCMDC-136456] | 3.85 | 0 (0: NO) | 1.54 |
| Cc1cc(C(F)(F)F)cc(-n2ncc(-c3ccc(C(=O)NCc4ccccc4N)cc3)c2N)n1.O=C(O)C(F)(F)F [TCMDC-136658] | 26.82 | 1 (1: YES) | 1.46 |

| Structure (SMILES) | HepG2 cytoxicity (Pf FGAA screen) [1] [µM] | Is compound selective in assay? Pf FGAA active? [2] | IC50 [3] [µM] |
| --- | --- | --- | --- |
| CN1CCN(Cc2ccc(OCc3cccc(COc4ccc(CN5CCN(C)CC5)cc4I)c3)c(I)c2)CC1.Cl [TCMDC-137239] | 5.01 | 0 (0: NO) | 1.85 |
| CCCCN(CCCC)CCCCNc1c2ccc(Cl)cc2nc2ccc(OC)cc12.Cl [TCMDC-137460] | 4.73 | 0 (0: NO) | 1.97 |
| COc1cc(CNCCCCCCNCc2cc(OC)c3ccccc3c2OC)c(OC)c2ccccc12.CS(=O)(=O)O [TCMDC-137502] | 3.67 | 0 (0: NO) | 1.67 |
| Clc1ccc(/N=C(/NCCCCCCCN/C(=N\c2ccc(Cl)cc2)Nc2ccc(Cl)cc2)Nc2ccc(Cl)cc2)cc1 [TCMDC-137529] | 2.00 | 0 (0: NO) | 0.58 |
| CC(CO)(CO)NCc1cc2c3ccccc3c(CNC(C)(CO)CO)cc2c2ccccc12.CS(=O)(=O)O [TCMDC-137752] | 7.33 | 0 (0: NO) | 4.42 |
| Clc1ccc(Nc2nc3ccc(Cl)cc3nc2Nc2ccc(Cl)cc2)cc1 [TCMDC-137772] | 7.86 | 0 (0: NO) | 1.91 |
| Clc1nc(Cl)c2c(ccn2Cc2ccccc2)n1 [TCMDC-137801] | >100 | 1 (1: YES) | 1.46 |
| CCCCSc1c(CNCCCCCCNCc2ccc3ccccc3c2SCCCC)ccc2ccccc12.CS(=O)(=O)O [TCMDC-137825] | 2.76 | 0 (0: NO) | 0.97 |
| COc1c(CNCCCCCCNCc2c(OC)c(OC)c3ccccc3c2OC)c(OC)c2ccccc2c1OC.CS(=O)(=O)O [TCMDC-137837] | 4.42 | 0 (0: NO) | 3.69 |
| Nc1nc(N)c2c(ccc3[nH]c(-c4ccccc4Cl)nc32)n1 [TCMDC-137840] | 2.32 | 0 (0: NO) | 4.42 |
| CCOc1cc2ccccc2cc1CNCCCCCCNCc1cc2ccccc2cc1OCC.CS(=O)(=O)O [TCMDC-137940] | 6.06 | 0 (0: NO) | 1.29 |
| COc1cc2c(OC)cccc2cc1CNCCCCCCNCc1cc2cccc(OC)c2cc1OC.CS(=O)(=O)O [TCMDC-137945] | 4.90 | 0 (0: NO) | 1.82 |
| CCCOc1c(CCNCCCCNCCc2ccc3ccccc3c2OCCC)ccc2ccccc12.CS(=O)(=O)O [TCMDC-137950] | 1.72 | 0 (0: NO) | 0.64 |
| COc1c(CNCCCCCCNCc2cc(Cl)c3ccccc3c2OC)cc(Cl)c2ccccc12.CS(=O)(=O)O [TCMDC-137958] | 4.62 | 0 (0: NO) | 1.18 |
| COc1ccc(CCNCCCCNCCc2ccc(OC)c3ccccc23)c2ccccc12.CS(=O)(=O)O [TCMDC-137961] | 2.14 | 0 (0: NO) | 0.48 |

Reference: paper PMC6753678, “Fueling Open Innovation for Malaria Transmission-Blocking Drugs: Hundreds of Molecules Targeting Early Parasite Mosquito Stages” (Frontiers in Microbiology, 2019)
